From paper PMC7983170 (Biochemical pharmacology, 2018) come the findings set out here.

A word on the pEC50: it is the EC50 on a negative log10 scale, so that one unit is a factor of ten. A lower pEC50 goes with a high EC50.

The experiment has as its target T1, ABCG2 (Homo sapiens, UniProt Q9UNQ0).
T1 sequence (Q9UNQ0 1-655): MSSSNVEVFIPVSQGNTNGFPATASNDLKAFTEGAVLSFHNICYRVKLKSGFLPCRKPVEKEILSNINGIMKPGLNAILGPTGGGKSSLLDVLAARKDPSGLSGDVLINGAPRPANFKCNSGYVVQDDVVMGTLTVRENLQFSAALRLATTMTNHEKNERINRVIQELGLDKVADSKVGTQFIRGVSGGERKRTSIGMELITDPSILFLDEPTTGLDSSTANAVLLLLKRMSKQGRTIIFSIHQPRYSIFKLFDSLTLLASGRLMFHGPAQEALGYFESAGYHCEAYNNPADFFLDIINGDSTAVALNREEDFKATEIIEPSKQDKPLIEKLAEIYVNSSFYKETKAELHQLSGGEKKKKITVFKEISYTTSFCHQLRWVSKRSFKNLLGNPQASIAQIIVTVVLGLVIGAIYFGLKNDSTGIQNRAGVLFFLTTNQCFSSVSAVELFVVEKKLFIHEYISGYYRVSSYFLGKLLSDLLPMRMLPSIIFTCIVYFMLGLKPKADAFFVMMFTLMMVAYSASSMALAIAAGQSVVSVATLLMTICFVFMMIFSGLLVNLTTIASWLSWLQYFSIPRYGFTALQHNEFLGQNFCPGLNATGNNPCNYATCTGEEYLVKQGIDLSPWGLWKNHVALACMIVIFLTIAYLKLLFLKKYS
As to the kind of experiment: stimulation of vanadate-sensitive ATPase activity in membrane vesicles. Type of experiment: biochemical.

Structures are written as SMILES. pEC50: −log10 of the molar value.

As to `O=C(CCCCCCNC(=O)c1cnc(N(c2ccccc2)c2ccccc2)nc1)NO` [ricolinostat], the negative logarithm of the EC50 (pEC50) was approximately 4.83.
